This is an account of results in PubChem BioAssay (NCI).

The structures appear in SMILES notation.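 Protocol summary: plate cells (96-well), add compound at 5 concentrations, incubate 48 h, interpolate endpoints linearly. TGI: total growth inhibition.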

Among the test systems are MCF7 breast; SF-539 CNS; UACC-257 melanoma; NCI-H23 lung; MALME-3M melanoma; MDA-N; U251 CNS; OVCAR-8 ovarian; RPMI-8226 leukemia; MDA-MB-231 breast; A549 NSCLC; RXF 393 renal; SR leukemia; CAKI-1 renal; HL-60(TB) leukemia; M14 melanoma; LOX IMVI melanoma; HT29 colon; NCI-H522 lung.
Assay in all cases: DTP human tumour cell line panel, 48 h

Turning to `CSc1nc(C)c(CCOC(C)=O)c(Cl)n1`, the TGI in the test with MCF7 breast, with SF-539 CNS, in the test on UACC-257 melanoma, in the test with NCI-H23 lung, in the test with MALME-3M melanoma and in the test on MDA-N was above 100 µM throughout. Further, the TGI in the test on U251 CNS, with OVCAR-8 ovarian, in the test with RPMI-8226 leukemia, with MDA-MB-231 breast, in the test on A549 NSCLC and in the test on RXF 393 renal was above 100 µM throughout. In addition, the TGI with SR leukemia, in the test on CAKI-1 renal, in the test with HL-60(TB) leukemia, with M14 melanoma, in the test with LOX IMVI melanoma and in the test on HT29 colon was above 100 µM throughout. Besides, the TGI (commonly the concentration giving total growth inhibition) with NCI-H522 lung is above 100 µM.

Turning to `O=c1[nH]nc(-c2ccccc2)n1/N=C/c1ccccc1Cl`, the TGI in the test on MCF7 breast was above 100 µM; in the test with SF-539 CNS it was above 100 µM; in the test with UACC-257 melanoma, above 100 µM; in the test on NCI-H23 lung it was 87.7 µM; in the test with MALME-3M melanoma, 86.4 µM; with MDA-N, above 100 µM. In addition, the TGI in the test on U251 CNS is above 100 µM; in the test with OVCAR-8 ovarian it was above 100 µM; in the test with RPMI-8226 leukemia it was 94.4 µM; with MDA-MB-231 breast it was above 100 µM; with A549 NSCLC, above 100 µM; with RXF 393 renal, 67.4 µM. In addition, the concentration for total growth inhibition (TGI) in the test with SR leukemia is 85.6 µM; with CAKI-1 renal, above 100 µM; in the test on HL-60(TB) leukemia it was 48 µM; in the test with M14 melanoma, above 100 µM; in the test with LOX IMVI melanoma it was above 100 µM; with HT29 colon it was above 100 µM. The molecule further gave a TGI with NCI-H522 lung of 43.9 µM.

Consider `CC(=O)c1ccc2c(c1)CC1(C2)Cc2ccc3c(c2C1=O)CCC3` (stereo unspecified), for which the TGI is 72 µM with MCF7 breast; above 100 µM with SF-539 CNS; 38.2 µM with UACC-257 melanoma; above 100 µM in the test with NCI-H23 lung; 57 µM in the test with MALME-3M melanoma; 94.6 µM with MDA-N. The TGI is above 100 µM with U251 CNS; above 100 µM with RPMI-8226 leukemia; above 100 µM with MDA-MB-231 breast; above 100 µM in the test with A549 NSCLC; 97 µM in the test on RXF 393 renal; above 100 µM in the test on SR leukemia. For the same molecule, the TGI with CAKI-1 renal was above 100 µM; in the test on HL-60(TB) leukemia, 48.3 µM; in the test with M14 melanoma it was 64.8 µM; in the test on LOX IMVI melanoma it was above 100 µM; with HT29 colon it was 31.6 µM; with NCI-H522 lung it was 54.6 µM.

For the molecule `COc1cc2c(cc1O)C1(Cc3ccc4c(c3C1=O)OCO4)N(C)CC2` (stereo unspecified), the TGI in the test on MCF7 breast, in the test on SF-539 CNS, in the test on UACC-257 melanoma, in the test on NCI-H23 lung, in the test on MALME-3M melanoma and in the test with MDA-N was above 100 µM throughout. Further, the concentration for total growth inhibition (TGI) in the test with U251 CNS, with OVCAR-8 ovarian, with RPMI-8226 leukemia, with MDA-MB-231 breast, in the test with A549 NSCLC and in the test on RXF 393 renal was above 100 µM throughout. For the same molecule, the TGI in the test with SR leukemia, in the test with CAKI-1 renal, in the test on HL-60(TB) leukemia, with M14 melanoma, in the test with HT29 colon and in the test with NCI-H522 lung was above 100 µM throughout.

Take `O=C(CCc1ccccc1)n1cccc1CO`: the TGI in the test on MCF7 breast, with SF-539 CNS, with UACC-257 melanoma, in the test on NCI-H23 lung, in the test with MALME-3M melanoma and in the test on MDA-N was above 100 µM each time. Further, the TGI in the test on U251 CNS, in the test on OVCAR-8 ovarian, with RPMI-8226 leukemia, with MDA-MB-231 breast, in the test with A549 NSCLC and in the test with RXF 393 renal was above 100 µM each time. Moreover, the TGI with SR leukemia, in the test on CAKI-1 renal, in the test with HL-60(TB) leukemia, in the test on M14 melanoma, with LOX IMVI melanoma and with HT29 colon was above 100 µM in each case. In addition, the TGI in the test with NCI-H522 lung is above 100 µM.

Turning to `N=CN=CC(=S)O[C@@H]1C(=O)N2CCC[C@@]23CCCC[C@@H]13`, the TGI in the test with MCF7 breast, in the test on UACC-257 melanoma, in the test on NCI-H23 lung, with MALME-3M melanoma, in the test on MDA-N and in the test on U251 CNS was above 12.5 µM in each case. Besides, the TGI in the test with OVCAR-8 ovarian, in the test with RPMI-8226 leukemia, in the test on MDA-MB-231 breast, with A549 NSCLC, in the test on RXF 393 renal and in the test on SR leukemia was above 12.5 µM throughout. The TGI in the test with CAKI-1 renal, in the test on HL-60(TB) leukemia, in the test with M14 melanoma, in the test with LOX IMVI melanoma, with HT29 colon and with NCI-H522 lung was above 12.5 µM in each case.

`CCN(CC)C1C(=O)NC1C#Cc1ccccc1` (stereo unspecified): the TGI in the test with MCF7 breast, in the test with SF-539 CNS, in the test with UACC-257 melanoma, in the test with NCI-H23 lung, in the test on MALME-3M melanoma and with MDA-N was above 100 µM throughout. In addition, the TGI with U251 CNS, in the test with OVCAR-8 ovarian, with RPMI-8226 leukemia, in the test on MDA-MB-231 breast, in the test on RXF 393 renal and in the test with SR leukemia was above 100 µM throughout. The TGI in the test on CAKI-1 renal, with HL-60(TB) leukemia, in the test on M14 melanoma, in the test on LOX IMVI melanoma, with HT29 colon and with NCI-H522 lung was above 100 µM throughout.

For the molecule `CCOc1ccccc1-c1nc2c(s1)C(=O)c1ccccc1C2=O`, the TGI in the test on MCF7 breast was 46.3 µM; with SF-539 CNS, 40.9 µM; with UACC-257 melanoma it was 27.3 µM; with NCI-H23 lung, 31 µM; in the test on MALME-3M melanoma, 19.8 µM; in the test on MDA-N, 6.5 µM. In addition, the TGI in the test on U251 CNS was 27.7 µM; with RPMI-8226 leukemia it was 54.8 µM; with MDA-MB-231 breast, 12.7 µM; in the test with A549 NSCLC, 36.9 µM; in the test with RXF 393 renal it was 31.5 µM; in the test with SR leukemia, above 100 µM. Further, the concentration for total growth inhibition (TGI) in the test on CAKI-1 renal stood at 26.7 µM; in the test on HL-60(TB) leukemia it was 4.4 µM; in the test on M14 melanoma, 36.7 µM; in the test with LOX IMVI melanoma, 16.7 µM; in the test with NCI-H522 lung it was 97.7 µM.
